Laboratory results reported in US20110207729A1, “BICYCLIC ACYLGUANIDINE DERIVATIVE” (ASTELLAS PHARMA INC., priority 2007, published 2011).
Structures can show the parent of a compound that is named as a salt.

target: T1, human 5-HT5A receptor (Homo sapiens, UniProt P47898); assay: Test on a human 5-HT5A receptor binding inhibition ([3H]5-CT); conditions: membrane from HEK293 cells expressing human 5-HT5A receptor; Ki calculated from IC50 and Kd 4.95 nM
T1 construct: expressed in transfected cells; membrane preparation
T1 sequence (P47898 whole entry): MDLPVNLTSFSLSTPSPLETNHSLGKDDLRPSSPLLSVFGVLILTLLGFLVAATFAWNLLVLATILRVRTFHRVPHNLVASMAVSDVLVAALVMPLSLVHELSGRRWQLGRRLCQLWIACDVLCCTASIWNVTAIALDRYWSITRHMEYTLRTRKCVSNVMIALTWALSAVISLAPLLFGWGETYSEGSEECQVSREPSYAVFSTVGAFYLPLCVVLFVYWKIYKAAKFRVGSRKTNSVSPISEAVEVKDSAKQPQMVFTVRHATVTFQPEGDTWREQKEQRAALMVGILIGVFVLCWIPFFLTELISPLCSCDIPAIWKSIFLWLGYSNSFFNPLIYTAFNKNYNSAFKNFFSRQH
Method: Acquisition of HEK293 cells for forced expressions of a human 5-HT5A receptor
The ORF (open reading frame; protein coding region) of a human 5-HT5A receptor (Genbank AF498985) was cloned from a human hippocampus cDNA library, and then inserted into a pCR2.1 vector (Invitrogen), and Escherichia coli containing the plasmid was cultured in a large amount. Next, the full-length cDNA sequence of the human 5-HT5A receptor was analyzed, and recombined into a pcDNA3.1 vector (Invitrogen) as an expression vector and cultured in a large amount. HEK293 established cells (ATCC) derived from the human fetal kidney were seeded, the expression plasmid (1 μg) obtained above were added thereto with LIPOFECTAMINE 2000 (Invitrogen; 2 μl), the gene was transfected into HEK293 cells, and the expression cells were screened with a drug-resistant marker, Geneticin (G418 sulfate 500 μg/ml; Kanto Chemical Co., Inc.). Thus prepared recombinant cells which express the gene were cultured in a medium containing D-MEM (Dulbecco's modified eagle medium, Sigma), 10% FCS (Fetal calf serum: fetal bovine serum), 1% Pc./Sm (Penicillin/Streptomycin, Invitrogen), and 500 μg/ml G418 for 3 days. These experimental operations follow an manual for gene operation experiment and an instruction appended in a reagent, and the like, such as a known method (Sambrook, J. et al, Molecular Cloning—A Laboratory Manual”, Cold Spring Harabor laboratory, NY, 1989).
(1) Preparation of a Membrane from HEK293 Cells for Forced Expressions of a Human 5-HT5A Receptor
HEK293 cells for forced expressions of a human 5-HT5A receptor were cultured in a F500 plate, and scraped with a scraper. After centrifugation, a precipitate was collected, and an incubation buffer (50 mM Tris (HCl) (pH 7.4), 10 mM MgSO4, and 0.5 mM EDTA (ethylenediamine tetraacetic acid)) were added thereto. After homogenization, it was further centrifuged, and the precipitate was added with the incubation buffer, followed by thoroughly suspending. This operation was repeated, and a protein concentration was measured, thereby completing the preparation of a membrane.
(2) Test on a Human 5-HT5A Receptor Binding Inhibition
A solution of a compound to be tested and 100 μM 5-CT (5-carboxamidetriptamine) in DMSO was added to a 96-well plate at 2 μl/well, and suspended in an incubation buffer, and a membrane from HEK293 cells for forced expressions of a human 5-HT5A receptor prepared at 200 μg/ml was added at 100 μl/well. After incubation at room temperature for 15 minutes, a [^3H]5-CT solution (2 nM [^3H]5-CT, incubation buffer) was added thereto at 100 μl/well.
Separately, 100 μl of the solution was distributed into a liquid scintillation vial, and 2 ml of Aquasol II (registered trademark) was added thereto, followed by stirring. Then, a radioactivity was measured by a liquid scintillation counter. It was incubated at 37° C. for 60 minutes. The reaction mixture was sucked into 96-well GF/C filter plate that had been pre-treated with 0.2% polyethyleneimine, and washed six times with an ice-cooled, 50 mM Tris (pH 7.5) buffer. The GF/C filter plate was dried.
Microscint TMPS (registered trademark) was added thereto at 40 μl/well. A radioactivity remaining on the GF/C filter plate was measured by a top counter.
The [^3H]5-CT binding inhibiting activity by the compound to be tested in each experiment was determined as an IC50 value with a radioactivity upon addition of DMSO alone being 0% inhibition, and a radioactivity upon addition of 1 μM 5-CT being 100% inhibition. Separately, a Ki value was calculated from the Kd value of the [^3H]5-CT determined from Scatchard analysis, by the following equation.
Ki=IC50(1+Concentration of ligands added/Kd(4.95 nM))

SMILES | Ki [nM]
NC(N)=NC(=O)c1ccc2scc(-c3ccc(F)cc3F)c2c1 [Example 3-30] | 0.3 to 3
NC(N)=NC(=O)c1ccc2c(c1)C(c1cc(F)cc(F)c1)=CCO2 [Example 1-46] | 3 to 30
CC1(C)C=C(c2c(F)cccc2F)c2cc(C(=O)N=C(N)N)ccc2O1 [Example 1-109] | 3 to 30
NC(N)=NC(=O)c1ccc2scc(-c3cccnc3)c2c1 [Example 3-32] | 30 to 300
NC(N)=NC(=O)c1ccc2c(c1)C(N1CCNCC1)CCC2 (stereo not drawn) [Example 3-01, N-(diaminomethylene)-8-piperazin-1-yl-5,6,7,8-tetrahydronaphthalene-2-carboxamide trihydrochloride] | 30 to 300
NC(N)=NC(=O)c1ccc2c(c1)C(c1ccc(C(F)(F)F)cc1C(F)(F)F)=CCO2 [Example 1-83] | 30 to 300
N#Cc1cccc(F)c1C1=CCCc2ccc(C(=O)N=C(N)N)cc21 [Example 2-180] | 3 to 30
NC(N)=NC(=O)c1ccc2scc(-c3ccc(F)cc3)c2c1 [Example 3-25] | 0.3 to 3
NC(N)=NC(=O)c1ccc2c(c1)C(c1c(F)cc(F)cc1F)=CCS2 [Example 3-16] | 0.3 to 3
NC(N)=NC(=O)c1ccc2occ(-c3ccccc3)c2c1 [Example 3-09] | 30 to 300
NC(N)=NC(=O)c1ccc2c(c1)C(c1cccc3c1OCCO3)=CCC2 [Example 2-189] | 30 to 300
NC(N)=NC(=O)c1ccc2c(c1)C(c1ccc(F)cc1)=C(F)CC2 [Example 2-96] | 0.3 to 3
COc1cccc(C#N)c1C1=CCCc2ccc(C(=O)N=C(N)N)cc21 [Example 2-66] | 30 to 300
COc1cc2c(cc1C(=O)N=C(N)N)C(c1c(F)cc(F)cc1F)=CCO2 [Example 1-118] | 0.3 to 3
COc1ncccc1C1=CCCc2ccc(C(=O)N=C(N)N)cc21 [Example 2-140] | 3 to 30
NC(N)=NC(=O)c1ccc2c(c1)C(c1ccc3nccn3c1)=CCC2 [Example 2-171] | 3 to 30
NC(N)=NC(=O)c1ccc2c(c1)C(c1cc(F)ccc1Cl)=CCO2 [Example 1-103] | 0.3 to 3
CCOc1ccc(C2=CCCc3ccc(C(=O)N=C(N)N)cc32)cc1 [Example 2-87] | 3 to 30
NC(N)=NC(=O)c1ccc2c(c1)C(c1ccncc1)=CCC2 [Example 2-49] | 3 to 30
Cn1cc(C2=CCCc3ccc(C(=O)N=C(N)N)cc32)ccc1=O [Example 2-191] | 30 to 300
N/C(=N\C(=O)c1ccc2c(c1)C(c1c(F)cccc1F)=CCO2)NCC1CC1 [Example 1-76] | 3 to 30
NC(N)=NC(=O)c1ccc2c(c1)C(c1ccnc(Cl)c1)=CCC2 [Example 2-174] | 3 to 30

SMILES | Ki [nM]
CS(=O)(=O)c1ccc(C2=CCCc3ccc(C(=O)N=C(N)N)cc32)cc1 [Example 2-97] | 30 to 300
NC(N)=NC(=O)c1ccc2c(c1)C(c1c(F)cc(F)cc1F)=CCC2 [Example 2-60] | 0.3 to 3
NC(N)=NC(=O)c1ccc2c(c1)C(c1cccc(Cl)c1)=CCC2 [Example 2-10] | 3 to 30
NC(N)=NC(=O)c1ccc2c(c1)C(c1ccccc1O)=CCC2 [Example 2-50] | 3 to 30
N#Cc1cc(F)ccc1C1=CCCc2ccc(C(=O)N=C(N)N)cc21 [Example 2-57] | 3 to 30
COc1ccccc1-c1csc2ccc(C(=O)N=C(N)N)cc12 [Example 3-08] | 0.3 to 3
COc1cc(F)c(F)cc1C1=CCCc2ccc(C(=O)N=C(N)N)cc21 [Example 2-100] | 3 to 30
NC(N)=NC(=O)c1ccc2c(c1)C(c1ccncc1F)=CCC2 [Example 2-158] | 0.3 to 3
NC(N)=NC(=O)c1ccc2c(c1)C(c1c(F)cc(F)cc1F)=CCCO2 [Example 3-12] | 0.3 to 3
COc1ccc(F)cc1C1=CCOc2ccc(C(=O)N=C(N)N)cc21 [Example 1-50] | 3 to 30
NC(N)=NC(=O)c1ccc2c(c1)C(c1c(F)ccc(F)c1F)=CCC2 [Example 2-99] | 0.3 to 3
NC(N)=NC(=O)c1ccc2c(c1)C(C1CCOCC1)=CCC2 [Example 2-31] | 3 to 30
COc1ccc(-c2csc3ccc(C(=O)N=C(N)N)cc23)c(OC)c1 [Example 3-20] | 3 to 30
NC(N)=NC(=O)c1ccc2c(c1)C(c1c(F)cccc1F)=CCC2 [Example 2-105] | 0.3 to 3
COc1ccccc1C1=CC(C)(C)Oc2ccc(C(=O)N=C(N)N)cc21 [Example 1-01, N-(diaminomethylene)-4-(2-methoxyphenyl)-2,2-dimethyl-2H-chromene-6-carboxamide hydrochloride] | 30 to 300
NC(N)=NC(=O)c1ccc2c(c1)C(c1ccccn1)=CCC2 [Example 2-89] | 30 to 300
NC(N)=NC(=O)c1ccc2scc(-c3ccccc3F)c2c1 [Example 3-26] | 0.3 to 3
NC(N)=NC(=O)c1ccc2c(c1)C(c1cccc(O)c1)=CCC2 [Example 2-51] | 0.3 to 3
NC(N)=NC(=O)c1ccc2c(c1)C(c1cncc(Cl)c1)=CCC2 [Example 2-150] | 30 to 300
NC(N)=NC(=O)c1ccc2c(c1)C(c1ccccc1C(F)(F)F)=CCO2 [Example 1-15] | 3 to 30
CC1=C(c2ccc(C#N)cc2)c2cc(C(=O)N=C(N)N)ccc2CC1 [Example 2-59] | 0.3 to 3
NC(N)=NC(=O)c1ccc2c(c1)C(c1cccc(F)c1)=CCC2 [Example 2-08] | 3 to 30

SMILES | Ki [nM]
COc1ccccc1-c1c(C#N)sc2ccc(C(=O)N=C(N)N)cc12 [Example 3-39] | 3 to 30
CC1=C(c2c(F)cc(F)cc2F)c2cc(C(=O)N=C(N)N)ccc2OC1 [Example 1-67] | 0.3 to 3
CCC1=C(c2ccccc2)c2cc(C(=O)N=C(N)N)ccc2CC1 [Example 2-115] | 3 to 30
Cc1ccc(C2=CCCc3ccc(C(=O)N=C(N)N)cc32)c(Cl)c1 [Example 2-134] | 0.3 to 3
NC(N)=NC(=O)c1ccc2c(c1)C(c1ccc(F)cc1F)=C(F)CC2 [Example 2-90] | 3 to 30
CCOc1ccccc1C1=CCCc2ccc(C(=O)N=C(N)N)cc21 [Example 2-44] | 30 to 300
N#Cc1ccc(C2=CCCOc3ccc(C(=O)N=C(N)N)cc32)cc1 [Example 3-13] | 3 to 30
NC(N)=NC(=O)c1ccc2c(c1)C(c1ccc(Cl)cc1Cl)=CCO2 [Example 1-51] | 0.3 to 3
NC(N)=NC(=O)c1ccc2scc(-c3ccncc3)c2c1 [Example 3-37] | 30 to 300
NC(N)=NC(=O)c1ccc2c(c1)C(c1ccc(O)cc1)=CCC2 [Example 2-52] | 0.3 to 3
COc1ccccc1C1=CCCOc2ccc(C(=O)N=C(N)N)cc21 [Example 3-11] | 3 to 30
COc1ccc(C#N)cc1C1=CCCc2ccc(C(=O)N=C(N)N)cc21 [Example 2-61] | 3 to 30
COc1cc(F)c(F)cc1C1=CCOc2ccc(C(=O)N=C(N)N)cc21 [Example 1-79] | 3 to 30
CC(C)Oc1ccc(C2=CCCc3ccc(C(=O)N=C(N)N)cc32)cc1 [Example 2-88] | 30 to 300
NC(N)=NC(=O)c1ccc2oc(=O)cc(-c3c(F)cc(F)cc3F)c2c1 [Example 1-104] | 30 to 300
NC(N)=NC(=O)c1ccc2c(c1)C(c1cccs1)=CCC2 [Example 2-21] | 0.3 to 3
CN(C)Cc1ccc(C2=CCCc3ccc(C(=O)N=C(N)N)cc32)cc1 [Example 2-32] | 3 to 30
CC1=C(c2ccccc2)c2cc(C(=O)N=C(N)N)ccc2CC1 [Example 2-56] | 2.3
Cc1cc(Cl)ccc1C1=CCCc2ccc(C(=O)N=C(N)N)cc21 [Example 2-135] | 0.3 to 3
N#Cc1ccccc1-c1csc2ccc(C(=O)N=C(N)N)cc12 [Example 3-38] | 3 to 30
NC(N)=NC(=O)c1ccc2c(c1)C(c1ccc(F)c(Cl)c1)=CCO2 [Example 1-80] | 3 to 30
CC1=C(c2ccc(F)cc2F)c2cc(C(=O)N=C(N)N)ccc2CC1 [Example 2-177] | 0.3 to 3
